# Measurements from patent US7622482B2, “Chemical compounds” (AstraZeneca, priority 2005, dated 2009).
# Molecular target: T1, human Trk A kinase (Homo sapiens, UniProt P04629)
# T1 construct: His; made in house; host or cells: SF9 insect cells
# Test: Trk A kinase assay (Alphascreen)
# Type: biochemical
# Details: intracellular domain of HIS-tagged human Trk A, 70 μM ATP, 20 minutes, room temperature, read-out: Trk inhibitory activity IC50
# Procedure: Trk A kinase activity was measured for its ability to phosphorylate synthetic tyrosine residues within a generic polypeptide substrate using an Amplified Luminescent Proximity Assay (Alphascreen) technology (PerkinElmer, 549 Albany Street, Boston, Mass.).
# To measure Trk A kinase activity, the intracellular domain of a HIS-tagged human Trk A kinase (amino acids 442-796 of Trk A, Swiss-Prot Primary Accession Number P04629) was expressed in SF9 cells and purified using standard nickel column chromatography. After incubation of the kinase with a biotinylated substrate and adenosine triphosphate (ATP) for 20 minutes at room temperature, the kinase reaction was stopped by the addition of 30 mM ethylenediaminetetraacetic acid (EDTA). The reaction was performed in 384 well microtitre plates and the reaction products were detected with the addition of strepavidin coated Donor Beads and phosphotyrosine-specific antibodies coated Acceptor Beads using the EnVision Multilabel Plate Reader after an overnight incubation at room temperature.
# T1 sequence (P04629 442-796): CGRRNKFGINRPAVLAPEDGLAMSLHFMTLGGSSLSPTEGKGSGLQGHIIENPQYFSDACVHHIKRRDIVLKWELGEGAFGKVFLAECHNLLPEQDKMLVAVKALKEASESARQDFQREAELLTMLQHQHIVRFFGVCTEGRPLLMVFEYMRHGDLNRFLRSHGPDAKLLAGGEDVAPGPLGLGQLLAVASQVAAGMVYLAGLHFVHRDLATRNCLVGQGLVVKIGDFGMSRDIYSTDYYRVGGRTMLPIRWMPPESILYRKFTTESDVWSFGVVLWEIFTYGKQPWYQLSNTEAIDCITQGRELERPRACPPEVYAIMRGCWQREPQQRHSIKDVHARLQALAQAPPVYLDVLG
row,IC50 [nM],SMILES
1,49,"C[C@@H](c1ccc(F)cc1)n1cnc2ccc(Nc3cc(C4CC4)[nH]n3)nc21 [Example 6, (S)—N-(5-Cyclopronyl-1H-pyrazol-3-yl)-3-(1-(4-fluorophenyl)ethyl)-3H-imidazo[4,5-b]pyridin-5-amine]"
2,11,"Fc1ccc(Cn2cnc3cc(Cl)c(Nc4cc(C5CC5)[nH]n4)nc32)cc1 [Example 18, 3-(4-Fluorobenzyl)-6-chloro-N-(5-cyclopropyl-1H-pyrazol-3-yl)-3H-imidazo[4,5-b]pyridin-5-amine]"
3,63,"CC(C)Oc1cc(Nc2ncc3ncn([C@@H](C)c4ccc(F)cc4)c3n2)n[nH]1 [Example 5, 9-[(1S)-1-(4-Fluorophenyl)ethyl]-N-(5-isopropoxy-1H-pyrazol-3-yl)-9H-purin-2-amine]"
